Several values for one entry are separate records, joined by “and”; a condition that tells them apart may be missing. Equal entries are not always repeated.
Experiments:
[1] = tested on: bulk phosphorylation; experiment: Phosphotyrosine Western blots; format: cell-based
From the text: FR901228 has a number of features that aid its ability to act as a potent immunosuppressant. […] Thus, these observations indicate that compounds of structure (I) affect the T-cell activation pathway at multiple points, thus allowing activation to proceed into early stages, such as phosphorylation, but preventing subsequent events of activation and proliferation.

[2] = tested on: NODSCID mice; experiment: Diabetes onset in NODSCID mice given NOD spleen cells; format: in vivo; details: 0.5 mg/kg i.p. every other day
Description: FR901228 was dissolved in 10% DMSO in PBS and were administered i.p. to NOD or NODSCID mice every other day. Controls contained only the DMSO excipient (10% DMSO in PBS). […] 0.5 mg/kg of FR901228 was administered at each treatment to twenty animals (ten NOD animals and ten NODSCID animals). Every two weeks the number of mice in each treatment group that had become diabetic was evaluated by measuring blood glucose levels using a glucometer at bi-weekly intervals. A reading of more than 200 mg/dl of blood glucose on two consecutive observations was considered indicative of frank diabetes.

Structure (SMILES): C/C=C1\NC(=O)[C@H]2CSSCC/C=C/[C@H](CC(=O)N[C@H](C(C)C)C(=O)N2)OC(=O)[C@H](C(C)C)NC1=O [FR901228]
- bulk phosphorylation [1]: does not affect
- delay of onset of frank diabetes versus excipient only ([2]; frank diabetes = more than 200 mg/dl on two consecutive observations): at least two
- blood glucose / status of single mouse, column 6 (5/9) ([2]; NODSCID, head 'age (wks.)' 6, one line per mouse): 261 mg/dL
- blood glucose / status of single mouse, (5/23) ([2]; NODSCID, head 'age (wks.)' 8, one line per mouse, 0.5 mg/kg): 547 mg/dL and 527 mg/dL
- blood glucose / status of single mouse, (6/6) ([2]; NODSCID, head 'age (wks.)' 10, one line per mouse, 0.5 mg/kg): 482 mg/dL and 526 mg/dL and 343 mg/dL and 317 mg/dL and 299 mg/dL and 412 mg/dL and 441 mg/dL and 494 mg/dL and 399 mg/dL and 285 mg/dL
- blood glucose / status of single mouse, (6/20) ([2]; NODSCID, head 'age (wks.)' 12, one line per mouse, 0.5 mg/kg): High (2×) and 566 mg/dl and 596 mg/dl and 568 mg/dl and 539 mg/dl and 338 mg/dl and 240 mg/dl and Dead and 576 mg/dl
- blood glucose / status of single mouse, 7/4 ([2]; NODSCID, head 'age (wks.)' 14, one line per mouse, 0.5 mg/kg): 536 mg/dl and 402 mg/dl and Dead (5×) and 494 mg/dl and 558 mg/dl
- blood glucose / status of single mouse, column 16 (7/18) ([2]; NODSCID, head 'age (wks.)' 16, one line per mouse): 571 mg/dL
- blood glucose / status of single mouse, column 18 (8/1) ([2]; NODSCID, head 'age (wks.)' 18, one line per mouse): Dead
